{
  "source": "paper PMC10010340",
  "about": "“The Wnt Pathway Inhibitor RXC004 Blocks Tumor Growth and Reverses Immune Evasion in Wnt Ligand–dependent Cancer Models” (Cancer Research Communications, 2022)",
  "key": {"[1]": {"test": "Permeability in Caco-2 cells", "assay_type": "in vitro ADME", "conditions": "human", "description": "Permeability of RXC004 was assessed in MDR1-MDCKII (Netherlands Cancer Institute) and Caco-2 cells (Merck Life Sciences). RXC004 (10 μmol/L) was added to either apical or basolateral chamber for 2 hours at 37°C, then an aliquot from the opposite side of the monolayer was removed and quantified by LC/MS-MS. Apparent permeability (Papp) was calculated according to standard practice ([20])."}, "[2]": {"test": "Hepatocyte stability", "assay_type": "in vitro ADME, mouse (CD1)", "conditions": "Mouse, 1 μmol/L", "description": "(§1) Metabolic stability: liver microsomes and hepatocytes from human, mouse (CD1), rat (Sprague Dawley) and dog (Beagle) were obtained from Invitrogen. RXC004 (1 μmol/L) was incubated at 37°C with microsomes (0.5 mg · mL^−1) or hepatocytes (0.5 × 10^6 cells · mL^−1). Aliquots were removed at 0–45 minutes and RXC004 concentrations determined by LC/MS-MS analysis. Half-life (T1/2) and intrinsic clearance (CLint) were calculated as described in ref. [18]."}, "[3]": {"system": "recombinant CYP enzymes", "test": "Recombinant CYP enzyme assays (metabolism)", "assay_type": "in vitro ADME"}, "[4]": {"system": "HPAF-II xenograft", "test": "In vivo 18FDG-PET biodistribution", "design": "species or system mouse (NOD-SCID)", "conditions": "5 mg/kg once daily, 7-day dosing", "description": "Experiment was performed at Medicines Discovery Catapult. SNU-1411 (1 × 10^7 cells; NOD-SCID mice) or HPAF-II (1 × 10^7 cells; NOD-SCID mice) were implanted subcutaneously and treatment with RXC004 (5 mg/kg once daily) or vehicle commenced when tumors reached approximately 200 mm^3. Mice were imaged prior to dosing, day 3 and day 7 after dosing. A 10 MBq injection of ^18FDG (PETNET), with a 45-minute washout was followed by a 20-minute PET scan using a Siemens Inveon PET scanner. Tissues removed on day 7 for biodistribution analysis were assessed using a PerkinElmer Wallac Wizard Gamma counter."}, "[5]": {"system": "HPAF-II cells", "test": "In vitro glucose uptake", "assay_type": "cell-based, human", "conditions": "Homo sapiens, RXC004 100 nmol/L, 48 hours", "description": "(§2) SNU-1411, HPAF-II, and HCT116 cells were treated in vitro for 48 hours with RXC004 (100 nmol/L), Latrunculin A (Abcam #ab144290; 500 nmol/L), or DMSO prior to analysis using the Glucose Uptake Glo Assay Kit (Promega #J1341). The ATPlite assay was used to control for cell viability, confirming RXC004 has no effect on proliferation at this 48 hours timepoint."}, "[6]": {"system": "HCT116 cells", "test": "In vitro glucose uptake", "assay_type": "cell-based, human", "conditions": "HCT116, RXC004 100 nmol/L, 48 hours", "description": "as §2"}, "[7]": {"system": "SNU-1411 cells", "test": "In vitro glucose uptake", "assay_type": "cell-based, human", "conditions": "Homo sapiens; SNU-1411, RXC004 100 nmol/L, 48 hours", "description": "as §2"}, "[8]": {"system": "β-catenin protein levels in L-Wnt3a cells", "test": "β-catenin expression by flow cytometry", "assay_type": "cell-based, mouse", "conditions": "100 nmol/L, 24 hours", "description": "Reporter Assay: Media from L-Wnt3a cells (L cells overexpressing Wnt3a; ATCC CRL-2647) treated with a concentration-series of RXC004, was incubated with the LEADING LIGHT Wnt Reporter Cell Line (Enzo life sciences; ENZ-61002-0001). Luciferase was detected using the ONE-Glo Luciferase Assay System (Promega E6120), data were normalized to DMSO-treated controls and IC50 values determined. Recombinant Wnt3a (Bio-Techne #1324-WN-010) was used at 1 μg/mL. β-catenin expression: L-Wnt3a cells were treated with RXC004 (100 nmol/L) or DMSO (0.1%) for 24 hours. Cellular β-catenin protein levels were quantified by staining with anti-β-catenin (AlexaFluor488, BD 562505) and assessment using an Agilent Novocyte-3000 flow cytometer."}, "[9]": {"system": "SNU-1411 xenograft", "test": "SNU-1411 xenograft dose-response study", "assay_type": "in vivo, mouse (NOD-SCID)", "conditions": "day 19; 1.5 and 5 mg/kg once daily, 1.5 mg/kg twice daily continuous or 5-day on/2-day off", "description": "To explore dose–response effects in vivo, SNU-1411 (1 × 10^7 cells) were implanted into NOD-SCID mice subcutaneously at Axis Bioservices. Animals were randomized into the indicated groups and oral dosing of RXC004 was initiated when tumors reached approximately 200 mm^3. Tumor volume measurements were taken at day 19, n ≥9 per group. Pharmacokinetic/pharmacodynamic analysis in SNU1411/NOD-SCID mice was performed in a separate study at Axis Biosciences, with tissue and plasma extracted for assessments after 7 days of RXC004 dosing. Tumor was divided into two sections; one section snap frozen and the other processed by FFPE. RXC004 levels were determined in snap frozen tumor and blood samples by LC/MS-MS. Expression analysis of the indicated genes was performed on snap frozen tumor as described above. Serial FFPE tumor sections were stained with H&E, anti-Ki67 (Abcam #Ab15580) or the dual mucin stain Alcian-blue/periodic acid shift (AB-PAS) at Histologix. IHC images were quantified using HALO software and modules (Indica Labs). The AB-PAS images were analyzed with the area quantification module on tumor area. […] The Ki67 images were analyzed with the multiplex IHC module and number of Ki67-positive cells were determined per mm^2 of total or differentiated tumor area."}, "[10]": {"test": "Aqueous solubility", "assay_type": "physicochemical", "conditions": "pH 7.4 buffer, 25°C", "description": "Following filtration under positive pressure, compound concentration in solution was assessed by high-performance liquid chromatography coupled to an ultraviolet detector (LC-UV)."}, "[11]": {"system": "SNU-1411 xenograft", "test": "Pharmacokinetic/pharmacodynamic analysis in SNU-1411/NOD-SCID mice, 7 days", "assay_type": "in vivo, mouse (NOD-SCID)", "description": "(§3) To explore dose–response effects in vivo, SNU-1411 (1 × 10^7 cells) were implanted into NOD-SCID mice subcutaneously at Axis Bioservices. Animals were randomized into the indicated groups and oral dosing of RXC004 was initiated when tumors reached approximately 200 mm^3. Tumor volume measurements were taken at day 19, n ≥9 per group. Pharmacokinetic/pharmacodynamic analysis in SNU1411/NOD-SCID mice was performed in a separate study at Axis Biosciences, with tissue and plasma extracted for assessments after 7 days of RXC004 dosing. Tumor was divided into two sections; one section snap frozen and the other processed by FFPE. RXC004 levels were determined in snap frozen tumor and blood samples by LC/MS-MS. Expression analysis of the indicated genes was performed on snap frozen tumor as described above. Serial FFPE tumor sections were stained with H&E, anti-Ki67 (Abcam #Ab15580) or the dual mucin stain Alcian-blue/periodic acid shift (AB-PAS) at Histologix. IHC images were quantified using HALO software and modules (Indica Labs). The AB-PAS images were analyzed with the area quantification module on tumor area. A classifier was trained to detect differentiated and nondifferentiated tumor areas in RXC004-treated tumors using the AB-PAS–stained slides. Image registration was used to assign annotations from AB-PAS images to Ki67 images. The Ki67 images were analyzed with the multiplex IHC module and number of Ki67-positive cells were determined per mm^2 of total or differentiated tumor area."}, "[12]": {"test": "Pharmacokinetic/pharmacodynamic analysis in SNU-1411/NOD-SCID mice, 7 days", "assay_type": "in vivo, mouse (NOD-SCID)", "conditions": "NOD-SCID, mouse, plasma, oral; 20 ng/mL equivalent to 10× IC50; read-out: total plasma concentration equivalent to free IC50", "description": "as §3"}, "[13]": {"test": "Microsomal stability", "assay_type": "in vitro ADME, mouse (CD1)", "conditions": "Mouse, 1 μmol/L", "description": "as §1"}},
  "data": [
    {"compound": "Cc1c(-c2ccnc(C(F)(F)F)c2)ncn1CC(=O)Nc1ccc(-c2cnccn2)cn1", "note": "[RXC004, 2-[5-methyl-4-[2-(trifluoromethyl)-4-pyridyl]imidazol-1-yl]-N-(5-pyrazin-2-yl-2-pyridyl)acetamide]", "values": [
      {"measurement": "Papp A→B at 2 h, 10 μmol/L", "setting": "[1]; apical to basolateral, read-out: Caco-2 PappA-B", "result": 23.6, "unit": "×10⁻⁶ cm/s"},
      {"measurement": "Papp B→A at 2 h, 10 μmol/L", "setting": "[1]; basolateral to apical, read-out: Caco-2 PappB-A", "result": 21.8, "unit": "×10⁻⁶ cm/s"},
      {"measurement": "Hepatocyte stability: CLint", "setting": "[2]", "result": "<3.0 μL minute^−^1 · 10^6 cells^−^1"},
      {"measurement": "metabolizing CYP enzyme", "setting": "[3]", "result": "exclusively metabolized by CYP3A4"},
      {"measurement": "18FDG tumor:blood ratios", "setting": "[4]", "result": "significant decrease in tumor:blood ratios"},
      {"measurement": "inhibition at 0.1 µM", "setting": "[5]", "result": "> 50", "unit": "%"},
      {"measurement": "glucose uptake", "setting": "[6]", "result": "had no effect"},
      {"measurement": "inhibition at 0.1 µM", "setting": "[7]", "result": "> 50", "unit": "%"},
      {"measurement": "β-catenin protein levels", "setting": "[8]", "result": "reduces β-catenin protein levels in L-Wnt3a cells back to baseline"},
      {"measurement": "tumor volume", "setting": "[9]", "result": "Significant reduction in tumor volume"},
      {"measurement": "solubility at 24 h", "setting": "[10]", "result": 56, "unit": "µM"},
      {"measurement": "c-Myc gene expression in tumor", "setting": "[11]; 1.5 or 5 mg/kg once daily, 7 days", "result": "Inhibition of c-Myc gene expression in tumor"},
      {"measurement": "tumor differentiation and mucin levels (Alcian-blue/PAS)", "setting": "[11]; intermediate effects at 1.5 mg/kg once daily, stronger at 5 mg/kg once daily", "result": "increased tumor differentiation and increased mucin levels"},
      {"measurement": "dose proportionality of levels in plasma and tumor", "setting": "[11]; oral 1.5 or 5 mg/kg once daily, 7 days", "result": "good dose proportionality"},
      {"measurement": "Ki67-positive cells in tumor", "setting": "[11]; total tumor area, more significantly in differentiated tumor", "result": "Ki67-positive cells were reduced"},
      {"measurement": "IC50", "setting": "[12]", "result": 2, "unit": "ng/mL"},
      {"measurement": "Microsomal stability: CLint", "setting": "[13]", "result": 3.9, "unit": "μL minute^−^1 · mg^−^1"}
    ]}
  ]
}
